Data on 1 compound can be found in PMC9953468, “In Silico, In Vitro, and Ex Vivo Biological Activity of Some Novel Mebeverine Precursors” (Biomedicines, 2023).

The experiment deals with Saccharomyces cerevisiae. Nature of the experiment: Antimicrobial activity, agar well diffusion method. The format is cell-based. The conditions noted are these: Dose 0.6 mg/disk, dwell = 6 mm. The text has this:
Eighteen tested microorganisms including five Gram-positive bacteria (Bacillus subtilis ATCC 6633, Bacillus amyloliquefaciens 4BCL-YT, Staphylococcus aureus ATCC 25923, Listeria monocytogenes NBIMCC 8632, Enterococcus faecalis ATCC 19433), five Gram-negative bacteria (Salmonella enteritidis ATCC 13076, Klebsiella sp.—clinical isolate, Escherichia coli ATCC 25922, Proteus vulgaris ATCC 6380, Pseudomonas aeruginosa ATCC 9027), two yeasts (Candida albicans NBIMCC 74, Saccharomyces cerevisiae ATCC 9763) and six fungi (Aspergillus niger ATCC 1015, Aspergillus flavus, Penicillium sp., Rhizopus sp., Mucor sp.—plant isolates, Fusarium moniliforme ATCC 38932) from the collection of the Department of Microbiology at the University of Food Technologies—Plovdiv, Bulgaria, were selected for the antimicrobial activity test.
The antimicrobial activity of the samples was determined by the agar well diffusion method. The tested bacteria B. subtilis and B. amyloliquefaciens were cultured on LBG agar at 30 °C. The test bacteria S. aureus, L. monocytogenes, E. faecalis, S. enteritidis, Klebsiella sp., E. coli, P. vulgaris and P. aeruginosa were cultured on LBG agar at 37 °C for 24 h. The yeast C. albicans was cultured on MEA at 37 °C, while S. cerevisiae was cultured on MEA at 30 °C for 24 h. The fungi A. niger, A. flavus, Penicillium sp., Rhizopus sp., Mucor sp., and F. moniliforme were grown on MEA at 30 °C for 7 days or until sporulation.
The inocula of the tested bacteria/yeasts were prepared by homogenization of a small amount of biomass in 5 mL of sterile 0.5% NaCl. The inocula of tested fungi were prepared by the addition of 5 mL of sterile 0.5% NaCl into the tubes. After stirring by vortex V-1 plus (Biosan), they were filtered and replaced in other tubes before use. The number of viable cells and fungal spores was determined using a bacterial counting chamber Thoma (Poly-Optik, GmbH, Bad Blankenburg, Germany). Their final concentrations were adjusted to 10^8 cfu/mL for bacterial/yeast cells and 10^5 cfu/mL for fungal spores and then inoculated in preliminarily melted and tempered at 45–48 °C LBG/MEA agar media. Next, the inoculated media were transferred in a quantity of 18 mL in sterile Petri plates (d = 90 mm) (Gosselin™, Hazebrouck, France) and allowed to harden. Then, six wells (d = 6 mm) per plate were cut, and triplicates of 60 μL of each extract were pipetted into the agar wells. The Petri plates were incubated in identical conditions.
The antimicrobial activity was determined by measuring the diameter of the inhibition zones around the wells on the 24th and 48th h of incubation. […]
In general terms: A growth-free zone around the sample is the usual read-out of agar diffusion tests.

`CC(C)C(N)Cc1ccccc1` (stereo not shown) [Compound 3, 3-Methyl-1-phenylbutan-2-amine]: the “Inhibition Zones” value amounted to 8 mm.
